According to PubChem BioAssay (NCI):
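96-well plates; 48 h exposure; 5 concentrations. Endpoints by linear interpolation between flanking doses. Not reached: highest tested concentration assigned. GI50: concentration for 50% inhibition of growth. TGI denotes the concentration required for complete inhibition of growth.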

Experiments:
Assay in all cases: NCI-60 cell line screen, 48 h
EKVX NSCLC = test system: EKVX NSCLC
MCF7 breast = test system: MCF7 breast
786-0 renal = test system: 786-0 renal
NCI-H522 lung = test system: NCI-H522 lung
OVCAR-8 ovarian = test system: OVCAR-8 ovarian
NCI-H460 lung = test system: NCI-H460 lung
HT29 colon = test system: HT29 colon
A549 NSCLC = test system: A549 NSCLC
HCC-2998 colon = test system: HCC-2998 colon
SR leukemia = test system: SR leukemia

| Compound | GI50 (EKVX NSCLC) [µM] | TGI (EKVX NSCLC) [µM] | GI50 (MCF7 breast) [µM] | TGI (MCF7 breast) [µM] | GI50 (786-0 renal) [µM] | TGI (786-0 renal) [µM] | GI50 (NCI-H522 lung) [µM] | TGI (NCI-H522 lung) [µM] | GI50 (OVCAR-8 ovarian) [µM] | TGI (OVCAR-8 ovarian) [µM] | GI50 (NCI-H460 lung) [µM] | TGI (NCI-H460 lung) [µM] | GI50 (HT29 colon) [µM] | TGI (HT29 colon) [µM] | GI50 (A549 NSCLC) [µM] | TGI (A549 NSCLC) [µM] | GI50 (HCC-2998 colon) [µM] | TGI (HCC-2998 colon) [µM] | TGI (SR leukemia) [µM] | GI50 (SR leukemia) [µM] |
| --- | --- | --- | --- | --- | --- | --- | --- | --- | --- | --- | --- | --- | --- | --- | --- | --- | --- | --- | --- | --- |
| C[n+]1ccc(-c2c3nc(c(-c4ccc5c(ccc[n+]5C)c4)c4ccc([nH]4)c(-c4cc[n+](C)cc4)c4nc(c(-c5ccc6c(ccc[n+]6C)c5)c5ccc2[nH]5)C=C4)C=C3)cc1 | > 50 | > 50 | 42.5 | > 50 | > 50 | > 50 | > 50 | > 50 | > 50 | > 50 | 16.9 | > 50 | > 50 | > 50 | 38.1 | > 50 | 49.7 | > 50 | – | – |
| C=C1C(=O)OC2/C=C(\C)C3OC3/C=C(/C(=O)OC)C(OC(C)=O)C(OC(=O)C(C)(O)C(C)OC(C)=O)C12 (centres undefined) | – | 42.9 | – | 2.67 | – | 8.27 | – | 0.871 | – | 6.92 | – | 13.3 | – | 2.88 | – | 35.5 | – | 14.4 | – | – |
| CC1=C(C(=O)Nc2ccccc2C)C(c2ccc(C3C(C(=O)Nc4ccccc4C)=CNC=C3C(=O)Nc3ccccc3C)cc2)C(C(=O)Nc2ccccc2C)=C(C)N1 | – | 40.7 | – | – | – | 29.3 | – | 18.9 | – | > 74.8 | – | 48 | – | 29.3 | – | > 100 | – | 31.8 | 16.7 | – |
| CC([O-])C(=O)[O-].NCC1CCC1CN.[Pt+4] (centres undefined) | > 10 | > 10 | 6.89 | > 10 | > 10 | > 10 | > 10 | > 10 | > 10 | > 10 | > 10 | > 10 | > 10 | > 10 | > 10 | > 10 | > 10 | > 10 | – | – |
| Cc1cc2c(cc1C)[n+](=O)c(C(=O)/C=C/c1ccccc1Cl)c(C)n2[O-] | – | > 100 | – | – | – | 30.3 | – | 26.7 | – | 63.8 | – | 63.7 | – | > 100 | – | > 100 | – | 34.2 | – | – |
| CCC(/C(=N\Nc1c(Cl)cc(Cl)cc1Cl)c1ccccc1)n1ccnc1C (centres undefined) | – | 35.9 | – | – | – | 25.6 | – | 18.1 | – | 37.2 | – | 29.4 | – | 21.4 | – | 38.1 | – | 15.7 | – | – |
| O=C(c1ccc2c3c(ccc(C(=O)C(F)(F)F)c13)CC2)C(F)(F)F | – | > 100 | – | – | – | > 100 | – | 98.9 | – | > 100 | – | > 100 | – | > 100 | – | > 100 | – | > 100 | > 100 | – |
| Oc1cc2c(cc1O)-c1[nH]ncc1CC2 | – | 61.1 | – | – | – | > 100 | – | 25.5 | – | > 100 | – | > 100 | – | > 100 | – | > 100 | – | 50.7 | > 100 | – |
| O=c1[nH]c(/C=C(\O)c2ccncc2)nc2ccccc12 | – | > 100 | – | – | – | > 100 | – | > 100 | – | > 100 | – | > 100 | – | > 100 | – | > 100 | – | > 100 | > 100 | – |
| CN(C)/C(N)=N/C(N)=S | – | > 100 | – | – | – | > 100 | – | > 100 | – | > 100 | – | > 100 | – | > 100 | – | > 100 | – | > 100 | > 100 | – |
| O=C1C(N2C(=O)c3ccccc3C2=O)CN1C(COCc1ccccc1)c1ccc(OCc2ccccc2)cc1 (centres undefined) | – | > 100 | – | – | – | > 100 | – | > 100 | – | > 100 | – | > 100 | – | > 100 | – | > 100 | – | > 100 | > 100 | – |
| N#CC1=C(c2ccccc2)C(O)(c2ccccc2)NC1=O (centres undefined) | – | > 100 | – | – | – | > 100 | – | – | – | > 100 | – | > 100 | – | > 100 | – | > 100 | – | > 100 | > 100 | – |
| COc1ccc(C(=O)O)c(Cc2ccc3ccccc3c2)c1 | – | > 100 | – | – | – | > 100 | – | > 100 | – | > 100 | – | > 100 | – | > 100 | – | > 100 | – | – | > 100 | – |
| ClC[Si]12OCCN(CCO1)CCO2 | – | – | – | – | – | > 100 | – | > 100 | – | > 100 | – | > 100 | – | > 100 | – | > 100 | – | > 100 | > 100 | – |
| O=CC1(C2(C=O)c3ccccc3-c3ccccc32)c2ccccc2-c2ccccc21 | 1.96 | 5.24 | – | – | 2.16 | 5.34 | 2.01 | 4.38 | 2.2 | 6.08 | 1.56 | 2.85 | 1.32 | 2.51 | – | – | > 100 | > 100 | 3.43 | 1.65 |
| CC(C)CC(=O)NS(=O)(=O)c1ccccc1 | – | > 100 | – | – | – | > 100 | – | > 100 | – | > 100 | – | > 100 | – | > 100 | – | > 100 | – | > 100 | > 100 | – |
| Oc1cc2ccccc2cc1-c1n[nH]c(=S)n1-c1ccc(Cl)cc1 | 28.7 | > 100 | – | – | 16.1 | 49.8 | 5.65 | 35.2 | 38.4 | > 100 | – | – | 24.6 | 76.3 | 25.3 | > 100 | – | – | > 100 | 3.08 |
| BrC12c3ccccc3Sc3ccccc3C1(Br)c1ccccc12 (centres undefined) | – | – | – | – | – | > 100 | – | 44.6 | – | > 100 | – | > 100 | – | > 100 | – | > 100 | – | > 100 | 41.4 | – |
| CC(Oc1ccc2cc(C(=O)c3ccccc3)c(=O)oc2c1)C(=O)O (centres undefined) | – | > 100 | – | – | – | > 100 | – | > 100 | – | > 100 | – | > 100 | – | > 100 | – | > 100 | – | > 100 | > 100 | – |
| COc1ccc(CC2C3=C(CCCC3)CCN2C)cc1 (centres undefined) | – | > 100 | – | > 100 | – | > 100 | – | – | – | > 100 | – | > 100 | – | > 100 | – | > 100 | – | > 100 | – | – |
| CC(=O)OCC1OC(Sc2ccccn2)C=CC1OC(C)=O (centres undefined) | – | > 100 | – | – | – | > 100 | – | > 100 | – | > 100 | – | – | – | > 100 | – | > 100 | – | > 100 | > 100 | – |
| COc1cc(-c2cc(CCC(=O)Nc3ccccc3[N+](=O)[O-])n(-c3ccc([N+](=O)[O-])cc3[N+](=O)[O-])n2)ccc1O | > 100 | > 100 | – | – | > 100 | > 100 | > 100 | > 100 | > 100 | > 100 | > 100 | > 100 | – | > 10 | > 100 | > 100 | > 100 | > 100 | > 10 | – |
| CC(O[Si](C)(C)C)C1C=CC(C)n2c(=O)n(-c3ccccc3)c(=O)n21 (centres undefined) | – | > 100 | – | – | – | > 100 | – | – | – | > 100 | – | – | – | > 100 | – | > 100 | – | > 100 | > 100 | – |
| CC1=C(c2cc(C(=O)Nc3nccs3)nc(NC#N)n2)Sc2ccccc2N1 | – | > 100 | – | – | – | > 100 | – | > 100 | – | > 100 | – | > 100 | – | > 100 | – | > 100 | – | – | > 100 | – |
| CC1(C)OC(=O)C(=C2CC(c3ccccc3)c3ccccc32)C(=O)O1 (centres undefined) | – | > 100 | – | – | – | > 100 | – | > 100 | – | > 100 | – | > 100 | – | > 100 | – | > 100 | – | > 100 | > 100 | – |
| Cc1cc2c(c(N)c1C)C(=O)c1ccccc1C2=O | – | – | – | – | – | 62.7 | – | > 100 | – | > 100 | – | > 100 | – | > 100 | – | > 100 | – | > 100 | > 100 | – |
| CCC/C(=N\NC(=O)c1cc2ccccc2cc1O)C(CC)C(=O)CCC(=O)N(Cc1ccccc1)Cc1ccccc1 (centres undefined) | – | > 100 | – | – | – | > 100 | – | > 100 | – | > 100 | – | > 100 | – | > 100 | – | > 100 | – | > 100 | > 100 | – |
| COC(=O)NN1C(C)=C(C(=O)OC)C2(CCOC2=O)C1(C)O (centres undefined) | – | > 100 | – | – | – | > 100 | – | > 100 | – | > 100 | – | > 100 | – | > 100 | – | > 100 | – | > 100 | – | – |
| c1ccc(C2N3CCCCC3[C@@H]3c4[nH]c5ccccc5c4CCN23)cc1 (some centres undefined) | – | > 100 | – | – | – | > 100 | – | – | – | > 100 | – | > 100 | – | 33.5 | – | > 100 | – | > 100 | – | – |
| CCCN1CCN(c2ccc3nc(-c4ccc5nc(-c6ccc(OCC)c(OCC)c6)[nH]c5c4)[nH]c3c2)CC1 | 1.4 | 7.72 | – | – | 0.986 | 2.33 | – | – | 0.451 | 2.16 | 0.387 | 1.35 | 0.294 | 1.66 | 0.808 | 2.35 | 0.533 | 1.16 | 0.896 | 0.263 |
